According to ChEMBL document CHEMBL4715770, “Inhibition of Low Molecular Weight Protein Tyrosine Phosphatase by an Induced-Fit Mechanism” (J Med Chem, 2016):

What was measured:
[1] = molecular target: T1, Tyrosine-protein phosphatase non-receptor type 9 (Homo sapiens, UniProt P43378); test: Inhibition of His-tagged PTP-MEG2 (unknown origin) expressed in Escherichia coli BL21 cells using para-nitrophenyl phosphate as substrate incubated for 5 to 10 mins by microplate reader based spectrophotometric analysis
T1 sequence (P43378 whole entry): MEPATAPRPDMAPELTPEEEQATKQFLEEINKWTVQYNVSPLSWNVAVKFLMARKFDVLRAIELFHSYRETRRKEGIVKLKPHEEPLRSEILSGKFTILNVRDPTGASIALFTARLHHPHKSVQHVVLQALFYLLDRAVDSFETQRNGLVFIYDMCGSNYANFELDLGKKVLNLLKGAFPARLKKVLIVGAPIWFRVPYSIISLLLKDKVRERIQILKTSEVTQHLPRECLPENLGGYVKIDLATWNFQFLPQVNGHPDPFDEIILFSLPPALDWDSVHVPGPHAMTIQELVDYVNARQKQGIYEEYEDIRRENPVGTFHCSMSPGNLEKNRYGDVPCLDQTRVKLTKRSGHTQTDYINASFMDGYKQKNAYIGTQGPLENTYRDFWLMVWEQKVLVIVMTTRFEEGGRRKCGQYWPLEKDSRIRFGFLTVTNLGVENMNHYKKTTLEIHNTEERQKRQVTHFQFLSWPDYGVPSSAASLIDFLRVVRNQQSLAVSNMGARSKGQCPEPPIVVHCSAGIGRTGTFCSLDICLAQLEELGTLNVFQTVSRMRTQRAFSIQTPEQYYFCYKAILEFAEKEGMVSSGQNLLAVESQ

[2] = molecular target: T2, Tyrosine-protein phosphatase non-receptor type 2 (Homo sapiens, UniProt P17706); test: Inhibition of His-tagged TC-PTP (unknown origin) expressed in Escherichia coli BL21 cells using para-nitrophenyl phosphate as substrate incubated for 5 to 10 mins by microplate reader based spectrophotometric analysis
T2 sequence (P17706 whole entry): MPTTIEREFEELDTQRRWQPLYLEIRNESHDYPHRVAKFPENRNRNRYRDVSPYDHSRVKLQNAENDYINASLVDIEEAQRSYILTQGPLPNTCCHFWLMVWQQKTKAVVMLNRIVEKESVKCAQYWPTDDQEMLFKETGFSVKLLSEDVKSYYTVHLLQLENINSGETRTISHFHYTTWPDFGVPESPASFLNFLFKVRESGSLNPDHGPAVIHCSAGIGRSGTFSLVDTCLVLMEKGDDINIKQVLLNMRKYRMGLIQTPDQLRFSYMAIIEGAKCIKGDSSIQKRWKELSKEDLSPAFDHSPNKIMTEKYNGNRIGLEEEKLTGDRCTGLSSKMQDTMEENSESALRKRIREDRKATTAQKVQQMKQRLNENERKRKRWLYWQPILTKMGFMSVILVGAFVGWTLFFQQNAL

[3] = molecular target: T3, Dual specificity protein phosphatase 23 (Homo sapiens, UniProt Q9BVJ7); test: Inhibition of His-tagged VHZ (unknown origin) expressed in Escherichia coli BL21 cells using para-nitrophenyl phosphate as substrate incubated for 5 to 10 mins by microplate reader based spectrophotometric analysis
T3 sequence (Q9BVJ7 whole entry): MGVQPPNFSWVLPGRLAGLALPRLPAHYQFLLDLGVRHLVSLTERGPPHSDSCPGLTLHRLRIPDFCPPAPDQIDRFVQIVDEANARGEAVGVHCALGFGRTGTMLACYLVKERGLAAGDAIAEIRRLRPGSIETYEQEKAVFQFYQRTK

[4] = molecular target: Receptor-type tyrosine-protein phosphatase F (Homo sapiens, UniProt P10586); test: Inhibition of His-tagged LAR (unknown origin) expressed in Escherichia coli BL21 cells using para-nitrophenyl phosphate as substrate incubated for 5 to 10 mins by microplate reader based spectrophotometric analysis
Receptor-type tyrosine-protein phosphatase F, sequence (P10586 whole entry): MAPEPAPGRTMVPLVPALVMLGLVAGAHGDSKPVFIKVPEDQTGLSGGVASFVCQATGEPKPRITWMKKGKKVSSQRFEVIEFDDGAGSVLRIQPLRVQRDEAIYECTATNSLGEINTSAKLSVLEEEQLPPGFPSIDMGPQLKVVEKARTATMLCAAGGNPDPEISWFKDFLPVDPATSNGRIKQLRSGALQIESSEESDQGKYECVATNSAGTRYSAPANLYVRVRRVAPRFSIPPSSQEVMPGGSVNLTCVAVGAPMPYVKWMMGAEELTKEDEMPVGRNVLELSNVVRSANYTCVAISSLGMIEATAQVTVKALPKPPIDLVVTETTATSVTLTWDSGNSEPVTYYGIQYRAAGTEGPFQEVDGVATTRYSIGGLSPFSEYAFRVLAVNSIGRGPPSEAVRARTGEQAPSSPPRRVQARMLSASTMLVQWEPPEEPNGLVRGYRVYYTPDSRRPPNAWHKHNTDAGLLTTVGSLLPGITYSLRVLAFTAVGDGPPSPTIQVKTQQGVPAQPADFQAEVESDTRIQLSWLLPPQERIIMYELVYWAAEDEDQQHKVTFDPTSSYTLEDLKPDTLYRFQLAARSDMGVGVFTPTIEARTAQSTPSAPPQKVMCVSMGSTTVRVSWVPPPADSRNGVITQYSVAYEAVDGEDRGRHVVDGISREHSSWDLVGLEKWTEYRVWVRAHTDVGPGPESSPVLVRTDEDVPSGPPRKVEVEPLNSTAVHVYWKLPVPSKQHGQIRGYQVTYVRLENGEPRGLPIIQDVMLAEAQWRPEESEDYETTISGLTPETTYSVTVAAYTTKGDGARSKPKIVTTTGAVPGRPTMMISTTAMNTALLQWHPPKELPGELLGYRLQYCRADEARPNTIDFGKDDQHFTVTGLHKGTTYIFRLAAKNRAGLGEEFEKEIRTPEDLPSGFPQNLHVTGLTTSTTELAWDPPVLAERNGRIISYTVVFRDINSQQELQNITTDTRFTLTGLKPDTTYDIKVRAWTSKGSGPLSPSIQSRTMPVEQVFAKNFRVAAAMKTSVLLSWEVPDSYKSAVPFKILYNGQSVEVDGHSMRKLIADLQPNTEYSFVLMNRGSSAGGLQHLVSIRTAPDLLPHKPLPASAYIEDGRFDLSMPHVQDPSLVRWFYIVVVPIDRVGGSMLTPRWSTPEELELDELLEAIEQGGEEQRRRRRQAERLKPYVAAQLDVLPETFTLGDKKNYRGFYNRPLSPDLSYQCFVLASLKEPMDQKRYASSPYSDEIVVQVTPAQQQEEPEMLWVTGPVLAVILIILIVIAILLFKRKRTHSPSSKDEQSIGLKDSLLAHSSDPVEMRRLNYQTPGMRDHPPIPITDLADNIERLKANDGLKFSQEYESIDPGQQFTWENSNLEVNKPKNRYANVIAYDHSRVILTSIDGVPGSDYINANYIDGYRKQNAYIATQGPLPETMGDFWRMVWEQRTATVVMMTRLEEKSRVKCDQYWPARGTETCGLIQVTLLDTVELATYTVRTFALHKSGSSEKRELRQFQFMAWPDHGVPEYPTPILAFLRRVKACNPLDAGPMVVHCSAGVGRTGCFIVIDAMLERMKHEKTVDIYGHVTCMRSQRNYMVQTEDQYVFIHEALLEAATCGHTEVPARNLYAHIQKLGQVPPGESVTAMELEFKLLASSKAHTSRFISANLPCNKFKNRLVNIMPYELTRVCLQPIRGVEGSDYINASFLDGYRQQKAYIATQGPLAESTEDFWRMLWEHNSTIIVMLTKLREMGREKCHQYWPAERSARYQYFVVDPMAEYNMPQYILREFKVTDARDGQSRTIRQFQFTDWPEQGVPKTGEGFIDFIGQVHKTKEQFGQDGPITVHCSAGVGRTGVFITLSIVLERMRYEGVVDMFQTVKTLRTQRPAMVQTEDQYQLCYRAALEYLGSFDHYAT

[5] = molecular target: T4, Tyrosine-protein phosphatase non-receptor type 1 (Homo sapiens, UniProt P18031); test: Inhibition of His-tagged PTP1B (unknown origin) expressed in Escherichia coli BL21 cells using para-nitrophenyl phosphate as substrate incubated for 5 to 10 mins by microplate reader based spectrophotometric analysis
T4 sequence (P18031 whole entry): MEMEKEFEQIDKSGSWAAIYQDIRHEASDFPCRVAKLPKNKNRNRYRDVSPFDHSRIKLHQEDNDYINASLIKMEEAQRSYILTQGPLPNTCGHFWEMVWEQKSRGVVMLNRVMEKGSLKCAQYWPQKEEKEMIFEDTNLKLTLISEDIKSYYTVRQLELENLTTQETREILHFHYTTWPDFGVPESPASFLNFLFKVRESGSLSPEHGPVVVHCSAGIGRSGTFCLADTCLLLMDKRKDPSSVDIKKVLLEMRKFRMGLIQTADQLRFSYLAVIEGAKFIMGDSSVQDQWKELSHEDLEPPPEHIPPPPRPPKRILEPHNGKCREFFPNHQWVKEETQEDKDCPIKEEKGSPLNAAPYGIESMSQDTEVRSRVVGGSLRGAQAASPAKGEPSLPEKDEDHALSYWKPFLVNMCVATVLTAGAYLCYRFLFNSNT

[6] = molecular target: T5, Tyrosine-protein phosphatase non-receptor type 11 (Homo sapiens, UniProt Q06124); test: Inhibition of His-tagged SHP2 (unknown origin) expressed in Escherichia coli BL21 cells using para-nitrophenyl phosphate as substrate incubated for 5 to 10 mins by microplate reader based spectrophotometric analysis
T5 sequence (Q06124 whole entry): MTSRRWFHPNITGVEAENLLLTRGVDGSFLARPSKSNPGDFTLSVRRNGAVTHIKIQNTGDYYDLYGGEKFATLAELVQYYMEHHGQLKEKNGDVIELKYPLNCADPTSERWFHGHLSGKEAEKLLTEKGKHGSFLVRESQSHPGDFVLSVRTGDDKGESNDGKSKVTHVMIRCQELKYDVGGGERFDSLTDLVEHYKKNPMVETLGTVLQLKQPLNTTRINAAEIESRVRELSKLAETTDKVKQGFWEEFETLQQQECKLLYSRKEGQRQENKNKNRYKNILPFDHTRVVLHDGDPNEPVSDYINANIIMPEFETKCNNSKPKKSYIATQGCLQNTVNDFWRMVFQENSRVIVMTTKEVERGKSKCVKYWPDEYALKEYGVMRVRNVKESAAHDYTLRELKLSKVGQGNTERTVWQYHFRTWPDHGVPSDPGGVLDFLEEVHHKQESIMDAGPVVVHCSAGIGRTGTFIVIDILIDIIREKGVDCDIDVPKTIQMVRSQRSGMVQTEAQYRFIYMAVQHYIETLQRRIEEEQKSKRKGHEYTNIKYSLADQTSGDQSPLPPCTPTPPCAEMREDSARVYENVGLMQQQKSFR

Compound | IC50 [1] | IC50 [2] | IC50 [3] | IC50 [4] | IC50 [5] | IC50 [6]
O=C(Nc1ccc(OCc2ccccc2)c(Cl)c1)C(c1ccccc1)S(=O)(=O)O (configuration not stated) | > 200 µM | > 200 µM | > 200 µM | > 200 µM |  | 
O=C(Nc1nc2ccc([N+](=O)[O-])cc2s1)C(c1ccccc1)S(=O)(=O)O (configuration not stated) | > 100 µM | > 100 µM | > 100 µM | > 100 µM | > 100 µM | > 100 µM
O=C(Nc1cc(C(F)(F)F)cc(C(F)(F)F)c1)C(c1ccccc1)S(=O)(=O)O (configuration not stated) | > 200 µM | > 200 µM | > 200 µM | > 200 µM | > 200 µM | > 200 µM
O=C(Nc1ccc(-n2ccnc2)cc1)C(c1ccccc1)S(=O)(=O)O (configuration not stated) | > 100 µM | > 100 µM | > 100 µM | > 100 µM | > 100 µM | > 100 µM
Cc1c(Br)cc(NC(=O)C(c2ccccc2)S(=O)(=O)O)cc1Br (configuration not stated) |  | > 200 µM | > 200 µM | > 200 µM | > 200 µM | > 200 µM
